# What was measured:
# [1] = Dissociation constant (pKa1)
# [2] = Dissociation constant (pKa2)
# Escherichia coli = assay: Minimum inhibitory concentration against gram-negative Escherichia coli Vogel (EC-1); type: functional
# [3] = test system: Mycolicibacterium smegmatis; assay: Minimum inhibitory concentration against Mycobacterium smegmatis; type: functional
# Pseudomonas aeruginosa = assay: Minimum inhibitory concentration against gram-negative Pseudomonas aeruginosa U1-18 (PA-7); type: functional
# Staphylococcus aureus = assay: Minimum inhibitory concentration against gram-positive Staphylococcus aureus H-228 (SA-13); type: functional
# Streptococcus pyogenes = assay: Minimum inhibitory concentration against gram-positive Streptococcus pyogenes C203 (SP1-1); type: functional
# [4] = test system: Mycolicibacterium fortuitum; assay: Minimum inhibitory concentration against Mycobacterium fortuitum; type: functional
smiles,measurement,setting,value
Cc1ccc(-n2cc(C(=O)O)c(=O)c3cc(F)c(N4CCNCC4)cc32)c(F)c1,pKa,[1],5.96
same,pKa,[2],8.34
same,MIC,Escherichia coli,0.2 µg/mL
same,MIC,[3],2 µg/mL
same,MIC,Pseudomonas aeruginosa,1.6 µg/mL
same,MIC,Staphylococcus aureus,1.6 µg/mL
same,MIC,Streptococcus pyogenes,3.1 µg/mL
same,MIC,[4],1 µg/mL
Cc1ccccc1-n1cc(C(=O)O)c(=O)c2cc(F)c(N3CC(C)NC(C)C3)cc21 (configuration not stated),pKa,[1],6.01
same,pKa,[2],8.55
same,MIC,Escherichia coli,1.6 µg/mL
same,MIC,[3],8 µg/mL
same,MIC,Pseudomonas aeruginosa,> 3.1 µg/mL
same,MIC,Staphylococcus aureus,> 3.1 µg/mL
same,MIC,Streptococcus pyogenes,> 3.1 µg/mL
same,MIC,[4],1 µg/mL
Cc1ccc(-n2cc(C(=O)O)c(=O)c3cc(F)c(N4CCNCC4)cc32)c(C)c1,MIC,Escherichia coli,0.8 µg/mL
same,MIC,[3],32 µg/mL
same,MIC,Pseudomonas aeruginosa,3.1 µg/mL
same,MIC,Staphylococcus aureus,> 3.1 µg/mL
same,MIC,Streptococcus pyogenes,> 3.1 µg/mL
same,MIC,[4],16 µg/mL
O=C(O)c1cn(-c2ccccc2)c2cc(N3CCNCC3)c(F)cc2c1=O,MIC,Escherichia coli,0.1 µg/mL
same,MIC,[3],2 µg/mL
same,MIC,Pseudomonas aeruginosa,0.8 µg/mL
same,MIC,Staphylococcus aureus,0.8 µg/mL
same,MIC,Streptococcus pyogenes,3.1 µg/mL
same,MIC,[4],0.5 µg/mL
CC1CN(c2cc3c(cc2F)c(=O)c(C(=O)O)cn3-c2ccccc2)CC(C)N1 (configuration not stated),pKa,[1],6.12
same,pKa,[2],8.58
same,MIC,Escherichia coli,0.4 µg/mL
same,MIC,[3],4 µg/mL
same,MIC,Pseudomonas aeruginosa,1.6 µg/mL
same,MIC,Staphylococcus aureus,1.6 µg/mL
same,MIC,Streptococcus pyogenes,3.1 µg/mL
same,MIC,[4],2 µg/mL
O=C(O)c1cn(-c2ccc(Cl)cc2Cl)c2cc(N3CCNCC3)c(F)cc2c1=O,MIC,Escherichia coli,0.4 µg/mL
same,MIC,[3],4 µg/mL
same,MIC,Pseudomonas aeruginosa,3.1 µg/mL
same,MIC,Staphylococcus aureus,> 3.1 µg/mL
same,MIC,Streptococcus pyogenes,> 3.1 µg/mL
same,MIC,[4],2 µg/mL
Cc1ccc(-n2cc(C(=O)O)c(=O)c3cc(F)c(N4CC(C)NC(C)C4)cc32)cc1 (configuration not stated),pKa,[1],6.1
same,pKa,[2],8.61
same,MIC,Escherichia coli,0.8 µg/mL
same,MIC,[3],4 µg/mL
same,MIC,Pseudomonas aeruginosa,3.1 µg/mL
same,MIC,Staphylococcus aureus,3.1 µg/mL
same,MIC,Streptococcus pyogenes,> 3.1 µg/mL
same,MIC,[4],1 µg/mL
O=C(O)c1cn(-c2ccccc2F)c2cc(N3CCNCC3)c(F)cc2c1=O,MIC,Escherichia coli,0.1 µg/mL
same,MIC,[3],2 µg/mL
same,MIC,Pseudomonas aeruginosa,0.8 µg/mL
same,MIC,Staphylococcus aureus,0.8 µg/mL
same,MIC,Streptococcus pyogenes,1.6 µg/mL
same,MIC,[4],0.25 µg/mL
Cc1ccccc1-n1cc(C(=O)O)c(=O)c2cc(F)c(N3CCNCC3)cc21,pKa,[1],5.98
same,pKa,[2],8.59
same,MIC,Escherichia coli,0.4 µg/mL
same,MIC,[3],8 µg/mL
same,MIC,Pseudomonas aeruginosa,1.6 µg/mL
same,MIC,Staphylococcus aureus,3.1 µg/mL
same,MIC,Streptococcus pyogenes,> 3.1 µg/mL
same,MIC,[4],4 µg/mL
CC1CN(c2cc3c(cc2F)c(=O)c(C(=O)O)cn3-c2ccccc2F)CC(C)N1 (configuration not stated),pKa,[1],5.88
same,pKa,[2],8.51
same,MIC,Escherichia coli,0.4 µg/mL
same,MIC,[3],2 µg/mL
same,MIC,Pseudomonas aeruginosa,1.6 µg/mL
same,MIC,Staphylococcus aureus,1.6 µg/mL
same,MIC,Streptococcus pyogenes,3.1 µg/mL
same,MIC,[4],0.5 µg/mL
O=C(O)c1cn(C2CC2)c2cc(N3CCNCC3)c(F)cc2c1=O [CIPROFLOXACIN],MIC,[3],0.25 µg/mL
same,MIC,Pseudomonas aeruginosa,0.2 µg/mL
same,MIC,Streptococcus pyogenes,0.4 µg/mL
same,MIC,[4],0.06 µg/mL
O=C(O)c1cn(-c2ccc(F)cc2F)c2cc(N3CCNCC3)c(F)cc2c1=O,pKa,[1],5.87
same,pKa,[2],8.31
same,MIC,Escherichia coli,0.1 µg/mL
same,MIC,[3],0.5 µg/mL
same,MIC,Pseudomonas aeruginosa,0.2 µg/mL
same,MIC,Staphylococcus aureus,0.4 µg/mL
same,MIC,Streptococcus pyogenes,0.4 µg/mL
same,MIC,[4],0.25 µg/mL
Cc1ccc(-n2cc(C(=O)O)c(=O)c3cc(F)c(N4CC(C)NC(C)C4)cc32)c(C)c1 (configuration not stated),pKa,[1],6.05
same,pKa,[2],8.24
same,MIC,Escherichia coli,3.1 µg/mL
same,MIC,[3],16 µg/mL
same,MIC,Pseudomonas aeruginosa,> 3.1 µg/mL
same,MIC,Staphylococcus aureus,> 3.1 µg/mL
same,MIC,Streptococcus pyogenes,> 3.1 µg/mL
same,MIC,[4],4 µg/mL
Cc1c(F)ccc(-n2cc(C(=O)O)c(=O)c3cc(F)c(N4CCNCC4)cc32)c1F,pKa,[1],5.87
same,pKa,[2],8.54
same,MIC,Escherichia coli,0.8 µg/mL
same,MIC,[3],8 µg/mL
same,MIC,Pseudomonas aeruginosa,3.1 µg/mL
same,MIC,Staphylococcus aureus,1.6 µg/mL
same,MIC,Streptococcus pyogenes,3.1 µg/mL
same,MIC,[4],0.5 µg/mL
Cc1cc(F)ccc1-n1cc(C(=O)O)c(=O)c2cc(F)c(N3CCNCC3)cc21,pKa,[1],6.11
same,pKa,[2],8.37
same,MIC,Escherichia coli,0.2 µg/mL
same,MIC,[3],4 µg/mL
same,MIC,Pseudomonas aeruginosa,0.4 µg/mL
same,MIC,Staphylococcus aureus,0.8 µg/mL
same,MIC,Streptococcus pyogenes,1.6 µg/mL
same,MIC,[4],1 µg/mL
Cc1ccc(-n2cc(C(=O)O)c(=O)c3cc(F)c(N4CCNCC4)cc32)cc1,MIC,Escherichia coli,0.4 µg/mL
same,MIC,[3],4 µg/mL
same,MIC,Pseudomonas aeruginosa,1.6 µg/mL
same,MIC,Staphylococcus aureus,3.1 µg/mL
same,MIC,Streptococcus pyogenes,> 3.1 µg/mL
same,MIC,[4],2 µg/mL
C[C@@H]1CN(c2c(F)c(N)c3c(=O)c(C(=O)O)cn(C4CC4)c3c2F)C[C@H](C)N1 [SPARFLOXACIN],MIC,Escherichia coli,0.025 µg/mL
same,MIC,[3],0.13 µg/mL
same,MIC,Pseudomonas aeruginosa,0.8 µg/mL
same,MIC,Staphylococcus aureus,0.05 µg/mL
same,MIC,Streptococcus pyogenes,0.1 µg/mL
same,MIC,[4],0.06 µg/mL
Cc1cc(F)ccc1-n1cc(C(=O)O)c(=O)c2cc(F)c(N3CC(C)NC(C)C3)cc21 (configuration not stated),pKa,[1],6.16
same,pKa,[2],8.16
same,MIC,Escherichia coli,0.4 µg/mL
same,MIC,[3],2 µg/mL
same,MIC,Pseudomonas aeruginosa,1.6 µg/mL
same,MIC,Staphylococcus aureus,1.6 µg/mL
same,MIC,Streptococcus pyogenes,> 3.1 µg/mL
same,MIC,[4],2 µg/mL
CC1CN(c2cc3c(cc2F)c(=O)c(C(=O)O)cn3-c2ccc(F)cc2F)CC(C)N1 (configuration not stated),pKa,[1],5.94
same,pKa,[2],8.26
same,MIC,Escherichia coli,0.4 µg/mL
same,MIC,[3],0.5 µg/mL
same,MIC,Pseudomonas aeruginosa,0.8 µg/mL
same,MIC,Staphylococcus aureus,0.4 µg/mL
same,MIC,Streptococcus pyogenes,0.8 µg/mL
same,MIC,[4],0.25 µg/mL
CC1CN(c2cc3c(cc2F)c(=O)c(C(=O)O)cn3-c2ccc(F)cc2)CC(C)N1 (configuration not stated),MIC,Escherichia coli,0.2 µg/mL
same,MIC,[3],1 µg/mL
same,MIC,Pseudomonas aeruginosa,0.8 µg/mL
same,MIC,Staphylococcus aureus,0.4 µg/mL
same,MIC,Streptococcus pyogenes,0.8 µg/mL
same,MIC,[4],0.25 µg/mL
O=C(O)c1cn(-c2ccc(F)cc2)c2cc(N3CCNCC3)c(F)cc2c1=O [SARAFLOXACIN],pKa,[1],6.02
same,pKa,[2],8.59
same,MIC,Escherichia coli,0.1 µg/mL
same,MIC,[3],1 µg/mL
same,MIC,Pseudomonas aeruginosa,0.2 µg/mL
same,MIC,Staphylococcus aureus,0.4 µg/mL
same,MIC,Streptococcus pyogenes,0.4 µg/mL
same,MIC,[4],0.25 µg/mL
Cc1ccc(-n2cc(C(=O)O)c(=O)c3cc(F)c(N4CC(C)NC(C)C4)cc32)c(F)c1 (configuration not stated),MIC,Escherichia coli,0.8 µg/mL
same,MIC,[3],2 µg/mL
same,MIC,Pseudomonas aeruginosa,3.1 µg/mL
same,MIC,Staphylococcus aureus,3.1 µg/mL
same,MIC,Streptococcus pyogenes,> 3.1 µg/mL
same,MIC,[4],1 µg/mL
Cc1c(F)ccc(-n2cc(C(=O)O)c(=O)c3cc(F)c(N4CC(C)NC(C)C4)cc32)c1F (configuration not stated),pKa,[1],5.94
same,pKa,[2],8.47
same,MIC,Escherichia coli,3.1 µg/mL
same,MIC,[3],4 µg/mL
same,MIC,Pseudomonas aeruginosa,> 3.1 µg/mL
same,MIC,Staphylococcus aureus,1.6 µg/mL
same,MIC,Streptococcus pyogenes,> 3.1 µg/mL
same,MIC,[4],1 µg/mL
CC1CN(c2cc3c(cc2F)c(=O)c(C(=O)O)cn3-c2ccc(Cl)cc2Cl)CC(C)N1 (configuration not stated),pKa,[1],5.75
same,pKa,[2],8.37
same,MIC,Escherichia coli,1.6 µg/mL
same,MIC,[3],4 µg/mL
same,MIC,Pseudomonas aeruginosa,> 3.1 µg/mL
same,MIC,Staphylococcus aureus,> 3.1 µg/mL
same,MIC,Streptococcus pyogenes,> 3.1 µg/mL
same,MIC,[4],2 µg/mL

# Reference: ChEMBL document CHEMBL1128492, “Effect of lipophilicity at N-1 on activity of fluoroquinolones against mycobacteria” (J Med Chem, 1995)
